Data: US9938257B2 (Sunshine Lake Pharma Co., Ltd., priority 2015, dated 2018)

Assays:
[1] = Compound stability in human liver microsomes; format: in vitro ADME; settings: pH 7.4; for half-life at 5 μM: human liver microsomes 0.5 mg protein/mL, compound 5 μM, NADPH 1.0 mM, 37° C., read-out: Human T1/2; for CLint scaled at 5 μM: human liver microsomes, in vivo CLint extrapolated
Procedure: (§1) Human or rat liver microsomes incubations were conducted in duplicate in polypropylene tubes. The typical incubation mixtures consisted of human or rat liver microsomes (0.5 mg protein/mL), compounds of interest (5 μM) and NADPH (1.0 mM) in a total volume of 200 μL potassium phosphate buffer (PBS, 100 mM, pH 7.4). Compounds were dissolved in DMSO and diluted with PBS such that the final concentration of DMSO was 0.05%. The enzymatic reactions were commenced with the addition of protein after a 3-min preincubation and incubated in a water bath open to the air at 37° C. Reactions were terminated at various time points (0, 5, 10, 15, 30, 60 min) by adding equal volume of ice-cold acetonitrile. The samples were stored at −80° C. until LC/MS/MS assays.
(§2) The concentrations of compounds in the incubation mixtures of human or rat liver microsomes were determined by a LC/MS/MS method. The ranges of the linearity in the concentration range were determined for each tested compounds.
(§3) A parallel incubation was performed using denatured microsomes as the negative control, and reactions were terminated at various time points (0, 15, 60 min) after incubation at 37° C.
(§4) Dextromethorphan (70 μM) was selected as the positive control, and reactions were terminated at various time points (0, 5, 10, 15, 30, 60 min) after incubation at 37° C. Both positive and negative control samples were included in each assay to ensure the integrity of the microsomal incubation system.
(§5) The concentrations of compounds in human or rat liver microsome incubations were plotted as a percentage of the relevant zero time point control for each reaction. The in vivo CLint were extrapolated (ref.: Naritomi, Y.; Terashita, S.; Kimura, S.; Suzuki, A.; Kagayama, A.; and Sugiyama, Y.; Prediction of human hepatic clearance from in vivo animal experiments and in vitro metabolic studies with liver microsomes from animals and humans. Drug Metab. Dispos., 2001, 29: 1316-1324).

[2] = Compound stability in rat liver microsomes; format: in vitro ADME; settings: pH 7.4; for half-life at 5 μM: rat liver microsomes 0.5 mg protein/mL, compound 5 μM, NADPH 1.0 mM, 37° C., read-out: Rat T1/2; for CLint scaled at 5 μM: rat liver microsomes, in vivo CLint extrapolated
Procedure: as §1, §2, §3, §4, §5

[3] = target: JAK1 (h) (Homo sapiens (Human), UniProt P23458); assay: JAK1 (h) kinase activity assay; format: biochemical
Procedure: (§6) The above assay procedure can be used to determine the IC50 for inhibition and/or the inhibition constant, Ki. The IC50 is defined as the concentration of compound required to reduce the enzyme activity by 50% under the condition of the assay. The IC50 value is estimated by preparing a 10 point curve using a ½ log dilution series (for example, a typical curve may be prepared using the following compound concentrations: 3 μM, 1 μM, 0.3 μM, 0.1 μM, 0.03 μM, 0.01 μM, 0.003 μM, 0.001 μM, 0.0003 μM and 0 μM).
(§7) JAK1 (h) is incubated with 20 mM Tris/HCl pH 7.5, 0.2 mM EDTA, 500 μM GEEPLYWSFPAKKK, 10 mM MgAcetate and [γ-^33P-ATP] (specific activity approx. 500 cpm/pmol, concentration as required). The reaction is initiated by the addition of the MgATP mix. After incubation for 40 minutes at room temperature, the reaction is stopped by the addition of 3% phosphoric acid solution. 10 μL of the reaction is then spotted onto a P30 filtermat and washed three times for 5 minutes in 75 mM phosphoric acid and once in methanol prior to drying and scintillation counting.
(§8) The kinase assays described herein were performed at Millipore UK Ltd, Dundee Technology Park, Dundee DD2 1SW, UK.

[4] = target: Aurora-A (h) (Homo sapiens (Human), UniProt O14965); assay: Aurora-A (h) kinase activity assay; format: biochemical
Procedure: as §6
as §7, with “Aurora-A (h)” for “JAK1 (h)”, “with 8” for “with 20”, “mM MOPS” for “mM Tris/HCl”, “pH 7.0,” for “pH 7.5,”, “EDTA, 200” for “EDTA, 500”, “μM LRRASLG (Kemptide),” for “μM GEEPLYWSFPAKKK,”
as §8

[5] = Pharmacokinetics after intravenous and oral administration in rats; format: in vivo; settings: for Clearance (CL) after iv dosing / AUC(0-t) / half-life / Vd: dose 1 mg/kg, iv dosing; for F: oral bioavailability, iv dose 1 mg/kg; for AUC(0-t) / half-life / Vd: rat, plasma; for Vd: read-out: Vss
Procedure: The compounds disclosed herein are assessed in pharmacokinetic studies in mice, rats, dogs or monkeys. The compounds are administered as a water solution, 2% HPMC+1% TWEEN®80 in water solution, 5% DMSO+5% solutol in saline, 4% MC suspension or capsule. For the intravenous administration, the animals are generally given at 0.5, 1 or 2 mg/kg dose. For the oral (p.o.) dosing, mice and rats are generally given 0.5, 1, 5 or 10 mg/kg dose, and dogs and monkeys are generally given 10 mg/kg dose. The blood samples (0.3 mL) are drawn at 0.25, 0.5, 1.0, 2.0, 3.0, 4.0, 6.0, 8.0, 12 and 24 h time points or 0.083, 0.25, 0.5, 1.0, 2.0, 4.0, 6.0, 8.0 and 24 h time points and centrifuged at 3,000 or 4000 rpm for 2 to 10 min. The plasma solutions are collected, and stored at −20° C. or −70° C. until analyzed by LC/MS/MS as described above.

Chain of Aurora-A (h) (O14965 whole entry): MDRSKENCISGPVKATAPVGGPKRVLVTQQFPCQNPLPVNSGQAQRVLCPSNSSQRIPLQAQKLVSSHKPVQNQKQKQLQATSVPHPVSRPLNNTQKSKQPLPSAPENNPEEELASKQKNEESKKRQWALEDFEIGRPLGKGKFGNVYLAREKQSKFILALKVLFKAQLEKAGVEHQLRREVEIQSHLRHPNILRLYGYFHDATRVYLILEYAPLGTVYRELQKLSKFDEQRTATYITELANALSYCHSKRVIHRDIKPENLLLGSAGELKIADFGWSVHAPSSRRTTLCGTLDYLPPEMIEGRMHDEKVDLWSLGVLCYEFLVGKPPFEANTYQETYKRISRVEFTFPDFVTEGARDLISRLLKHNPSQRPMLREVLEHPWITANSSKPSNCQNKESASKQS
Chain of JAK1 (h) (P23458 whole entry): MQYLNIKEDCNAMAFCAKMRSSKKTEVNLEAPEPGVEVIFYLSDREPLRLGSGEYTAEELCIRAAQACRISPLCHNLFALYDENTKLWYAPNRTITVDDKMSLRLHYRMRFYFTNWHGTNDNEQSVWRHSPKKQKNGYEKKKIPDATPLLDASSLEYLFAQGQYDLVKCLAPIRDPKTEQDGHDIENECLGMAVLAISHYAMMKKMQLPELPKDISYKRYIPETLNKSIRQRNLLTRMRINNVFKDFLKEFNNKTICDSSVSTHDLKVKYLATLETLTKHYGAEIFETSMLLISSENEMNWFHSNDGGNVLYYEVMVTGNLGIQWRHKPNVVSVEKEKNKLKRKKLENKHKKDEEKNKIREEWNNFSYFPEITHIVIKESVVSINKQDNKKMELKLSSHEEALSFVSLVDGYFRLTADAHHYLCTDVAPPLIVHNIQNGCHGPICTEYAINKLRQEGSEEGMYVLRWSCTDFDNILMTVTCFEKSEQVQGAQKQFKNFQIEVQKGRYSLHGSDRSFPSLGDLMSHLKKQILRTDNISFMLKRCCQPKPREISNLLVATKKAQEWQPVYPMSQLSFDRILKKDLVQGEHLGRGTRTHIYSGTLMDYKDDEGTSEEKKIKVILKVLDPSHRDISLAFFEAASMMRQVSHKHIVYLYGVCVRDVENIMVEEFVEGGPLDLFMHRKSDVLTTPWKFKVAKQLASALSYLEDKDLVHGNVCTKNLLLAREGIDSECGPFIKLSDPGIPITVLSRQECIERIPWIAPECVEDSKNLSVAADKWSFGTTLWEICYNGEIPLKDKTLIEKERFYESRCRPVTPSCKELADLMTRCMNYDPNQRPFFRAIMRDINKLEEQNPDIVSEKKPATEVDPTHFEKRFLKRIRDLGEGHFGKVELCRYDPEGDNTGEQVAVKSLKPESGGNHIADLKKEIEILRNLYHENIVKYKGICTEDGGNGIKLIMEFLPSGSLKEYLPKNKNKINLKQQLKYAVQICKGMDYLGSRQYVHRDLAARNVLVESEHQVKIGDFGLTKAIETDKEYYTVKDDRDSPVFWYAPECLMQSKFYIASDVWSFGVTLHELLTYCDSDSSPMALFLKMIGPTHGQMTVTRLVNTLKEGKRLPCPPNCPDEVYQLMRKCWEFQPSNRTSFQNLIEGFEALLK

Compound `Cn1cc(Nc2ncc(Cl)c(NC3CC4CN(C(=O)C5CC5)CC4C3)n2)cn1` (stereo not shown) [Ex. 14, (5-((5-chloro-2-((1-methyl-1H-pyrazol-4-yl)amino)pyrimidin-4-yl)amino)hexahydrocyclopenta[c]pyrrol-2(1H)-yl)(cyclopropyl)methanone] has a half-life at 5 μM [1] of 44.2 min, a CLint scaled at 5 μM [1] of 39.4 mL/min/kg and a half-life at 5 μM [2] of 3.33 min. It also gave a CLint scaled at 5 μM [2] of 745 mL/min/kg, an IC50 [3] of 6 nM and an IC50 [4] of 21 nM.
Compound `CC(O)Cn1cc(Nc2ncc(Cl)c(NC3CC4CN(C(=O)NC5CC5)CC4C3)n2)cn1` (stereo not shown) [Ex. 41, 5-((5-chloro-2-((1-(2-hydroxypropyl)-1H-pyrazol-4-yl)amino)pyrimidin-4-yl)amino)-N-cyclopropylhexahydrocyclopenta[c]pyrrole-2(1H)-carboxamide] has a half-life at 5 μM [1] of 73.5 min, a CLint scaled at 5 μM [1] of 23.7 mL/min/kg and a half-life at 5 μM [2] of 43.7 min. It also gave a CLint scaled at 5 μM [2] of 56.8 mL/min/kg and an IC50 [4] of 19 nM.
`CC(=O)N1CC2CC(Nc3nc(Nc4cnn(CC(C)(C)O)c4)ncc3Cl)CC2C1` (stereo not shown) [Ex. 1, 1-(5-((5-chloro-2-((1-(2-hydroxy-2-methylpropyl)-1H-pyrazol-4-yl)amino)pyrimidin-4-yl)amino)hexahydrocyclopenta[c]pyrrol-2(1H)-yl)ethanone] gave a half-life at 5 μM [1] of 148 min, a CLint scaled at 5 μM [1] of 11.7 mL/min/kg and a half-life at 5 μM [2] of 112 min. For the same compound, the CLint scaled at 5 μM [2] was 22.2 mL/min/kg, the “Clearance (CL) after iv dosing” value [5] was 46.2 mL/min/kg and the F [5] was 61.7%. The AUC(0-t) [5] was 360 ng·h/mL, the half-life [5] was 38.4 min and the Vd [5] was 1.53 L/kg. For the same compound, the IC50 [3] was 10 nM and the IC50 [4] was 58 nM.
`Cn1cc(Nc2ncc(Cl)c(NC3CC4CN(CC(C)(C)O)CC4C3)n2)cn1` (stereo not shown) [Ex. 16, 1-(5-((5-chloro-2-((1-methyl-1H-pyrazol-4-yl)amino)pyrimidin-4-yl)amino)hexahydrocyclopenta[c]pyrrol-2(1H)-yl)-2-methylpropan-2-ol] gave a half-life at 5 μM [1] of 210 min, a CLint scaled at 5 μM [1] of 8.27 mL/min/kg and a half-life at 5 μM [2] of 6.28 min. For the same compound, the CLint scaled at 5 μM [2] was 395 mL/min/kg and the IC50 [3] was 32 nM.
For `Cn1cc(Nc2ncc(Cl)c(NC3CC4CN(C(=O)CC5CC5)CC4C3)n2)cn1` (stereo not shown) [Ex. 12, 1-(5-((5-chloro-2-((1-methyl-1H-pyrazol-4-yl)amino)pyrimidin-4-yl)amino)hexahydrocyclopenta[c]pyrrol-2(1H)-yl)-2-cyclopropylethanone], the “Clearance (CL) after iv dosing” value [5] was 60.2 mL/min/kg, the F [5] was 30.5% and the AUC(0-t) [5] was 278 ng·h/mL. The half-life [5] was 14.4 min, the Vd [5] was 0.99 L/kg and the IC50 [3] was 12 nM. For the same compound, the IC50 [4] was 17 nM.
`Cn1cc(Nc2ncc(Cl)c(NC3CC4CN(S(=O)(=O)C5CC5)CC4C3)n2)cn1` (stereo not shown) [Ex. 13, 5-chloro-N^4-(2-(cyclopropylsulfonyl)octahydrocyclopenta[c]pyrrol-5-yl)-N^2-(1-methyl-1H-pyrazol-4-yl)pyrimidine-2,4-diamine] gave a half-life at 5 μM [1] of 33.1 min, a CLint scaled at 5 μM [1] of 52.5 mL/min/kg and a half-life at 5 μM [2] of 5.48 min. It also gave a CLint scaled at 5 μM [2] of 454 mL/min/kg and an IC50 [4] of 5 nM.
For `Cn1cc(Nc2ncc(Cl)c(NC3CC4CN(S(=O)(=O)CC5CC5)CC4C3)n2)cn1` (stereo not shown) [Ex. 17, 5-chloro-N^4-(2-((cyclopropylmethyl)sulfonyl)octahydrocyclopenta[c]pyrrol-5-yl)-N^2-(1-methyl-1H-pyrazol-4-yl)pyrimidine-2,4-diamine], the half-life at 5 μM [1] was 35.7 min, the CLint scaled at 5 μM [1] was 48.6 mL/min/kg and the half-life at 5 μM [2] was 7.15 min. For the same compound, the CLint scaled at 5 μM [2] was 347 mL/min/kg, the “Clearance (CL) after iv dosing” value [5] was 54.2 mL/min/kg and the F [5] was 37.3%. The AUC(0-t) [5] was 308 ng·h/mL, the half-life [5] was 17.4 min and the Vd [5] was 1.44 L/kg. For the same compound, the IC50 [4] was 6 nM.
With `Cn1cc(Nc2ncc(Cl)c(NC3CC4CN(S(=O)(=O)C(C)(C)C)CC4C3)n2)cn1` (stereo not shown) [Ex. 31, N^4-(2-(tert-butylsulfonyl)octahydrocyclopenta[c]pyrrol-5-yl)-5-chloro-N^2-(1-methyl-1H-pyrazol-4-yl)pyrimidine-2,4-diamine] the IC50 [4] was 50 nM.
`CC(=O)N1CC2CC(Nc3nc(Nc4cnn(-c5ccccn5)c4)ncc3Cl)CC2C1` (stereo not shown) [Ex. 8, 1-(5-((5-chloro-2-((1-(pyridin-2-yl)-1H-pyrazol-4-yl)amino)pyrimidin-4-yl)amino)hexahydrocyclopenta[c]pyrrol-2(1H)-yl)ethanone] gave a half-life at 5 μM [1] of 31.4 min, a CLint scaled at 5 μM [1] of 55.3 mL/min/kg and a half-life at 5 μM [2] of 16.2 min. The CLint scaled at 5 μM [2] was 153 mL/min/kg, the “Clearance (CL) after iv dosing” value [5] was 31 mL/min/kg and the F [5] was 36.9%. The AUC(0-t) [5] was 558 ng·h/mL, the half-life [5] was 33.6 min and the Vd [5] was 1.55 L/kg.
`O=C(NC1CC1)N1CC2CC(Nc3nc(Nc4cnn(C5CCNC5)c4)ncc3Cl)CC2C1` (stereo not shown) [Ex. 40, 5-((5-chloro-2-((1-(pyrrolidin-3-yl)-1H-pyrazol-4-yl)amino)pyrimidin-4-yl)amino)-N-cyclopropylhexahydrocyclopenta[c]pyrrole-2(1H)-carboxamide] gave an IC50 [4] of 12 nM.
In the case of `CC(C)(O)Cn1cc(Nc2ncc(Cl)c(NC3CC4CN(S(=O)(=O)NC5CC5)CC4C3)n2)cn1` (stereo not shown) [Ex. 43, 5-((5-chloro-2-((1-(2-hydroxy-2-methylpropyl)-1H-pyrazol-4-yl)amino)pyrimidin-4-yl)amino)-N-cyclopropylhexahydrocyclopenta[c]pyrrole-2(1H)-sulfonamide], the IC50 [4] is reported as 9 nM.
For `Cn1cc(Nc2ncc(Cl)c(NC3CC4CN(C(=O)Nc5ccccc5)CC4C3)n2)cn1` (stereo not shown) [Ex. 28, 5-((5-chloro-2-((1-methyl-1H-pyrazol-4-yl)amino)pyrimidin-4-yl)amino)-N-phenylhexahydrocyclopenta[c]pyrrole-2(1H)-carboxamide], the half-life at 5 μM [1] was 24.2 min, the CLint scaled at 5 μM [1] was 72 mL/min/kg and the half-life at 5 μM [2] was 3.6 min. The CLint scaled at 5 μM [2] was 690 mL/min/kg, the “Clearance (CL) after iv dosing” value [5] was 99.2 mL/min/kg and the F [5] was 42.0%. For the same compound, the AUC(0-t) [5] was 168 ng·h/mL, the half-life [5] was 22.8 min and the Vd [5] was 1.99 L/kg.
Compound `CC(C)(O)Cn1cc(Nc2ncc(Cl)c(NC3CC4CN(C(=O)CC#N)CC4C3)n2)cn1` (stereo not shown) [Ex. 2, 3-(5-((5-chloro-2-((1-(2-hydroxy-2-methylpropyl)-1H-pyrazol-4-yl)amino)pyrimidin-4-yl)amino)hexahydrocyclopenta[c]pyrrol-2(1H)-yl)-3-oxopropanenitrile] has a half-life at 5 μM [1] of 106 min, a CLint scaled at 5 μM [1] of 16.4 mL/min/kg and a half-life at 5 μM [2] of 107 min. The CLint scaled at 5 μM [2] was 23.3 mL/min/kg, the IC50 [3] was 2 nM and the IC50 [4] was 28 nM.
